Legend:
[1] = tested on: human breast cancer HCC1806 cells; assay: Assay of cell proliferation (CellTiter-Glo); format: cell-based; details: Homo sapiens, 144 h, 6 days, read-out: HCC1806 IC50 of cell proliferation inhibitory activity
How it was run: (§1)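 Cells seeded per line at growth-adapted densities, treated 6 days at 37 °C/5% CO2 with nine 3-fold dilutions (10 µM to 0.1 nM final, 0.5% DMSO). Viability by CellTiter-Glo luminescence; IC50 from four-parameter fit.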

[2] = tested on: human gastric cancer MKN1 cells; assay: Assay of cell proliferation (CellTiter-Glo); format: cell-based; details: Homo sapiens, MKN-1, 144 h; MNK1, 6 days; read-out: MKN1 IC50 of cell proliferation inhibitory activity
How it was run: as §1

[3] = tested on: human breast cancer MCF-7 cells; assay: Assay of cell proliferation (CellTiter-Glo); format: cell-based; details: 144 h, MCF7 cells, 6 days, read-out: MCF7 IC50 of cell proliferation inhibitory activity
How it was run: as §1

[4] = tested on: human acute myeloid leukemia MV-4-11 cells; assay: Assay of cell proliferation (CellTiter-Glo); format: cell-based; details: MV4-11, 144 h, 6 days, read-out: MV-4-11 IC50 of cell proliferation inhibitory activity
How it was run: as §1

[5] = tested on: human colon cancer HCT-116 cells; assay: Assay of cell proliferation (CellTiter-Glo); format: cell-based; details: 144 h, 6 days, read-out: HCT-116 IC50 of cell proliferation inhibitory activity
How it was run: as §1

[6] = tested on: Human ovarian cancer OVCAR3 cells; assay: Assay of cell proliferation (CellTiter-Glo); format: cell-based; details: Homo sapiens, OVCAR-3, 144 h, 6 days, read-out: OVCAR3 IC50 of cell proliferation inhibitory activity
How it was run: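 OVCAR3 cells, 2000/well in RPMI 1640 with 20% FBS, treated with nine 3-fold dilutions from 10 µM to 0.1 nM (0.5% DMSO) for 6 days at 37 °C. Viability by CellTiter-Glo luminescence; IC50 by four-parameter fit.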

[7] = target: CDK2/cyclin E (Homo sapiens, UniProt P24941); assay: Assay of kinase activity (ADP-Glo); format: biochemical; details: kinase inhibitory activity, read-out: CDK2/E1 IC50
How it was run: (§2)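 Kinase preincubated 10 min with compound in 50 mM Hepes, 10 mM MgCl2, 0.01% Brij35, 2 mM DTT, then substrate/ATP added for 60 min at 25 °C. ADP formed measured by ADP-Glo luminescence; IC50 by nonlinear concentration-response fitting.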

[8] = target: CDK4/cyclin D1 (Homo sapiens, UniProt P11802); assay: Assay of kinase activity (ADP-Glo); format: biochemical; details: kinase inhibitory activity
Sequence of CDK4/cyclin D1 (P11802 whole entry, species assumed): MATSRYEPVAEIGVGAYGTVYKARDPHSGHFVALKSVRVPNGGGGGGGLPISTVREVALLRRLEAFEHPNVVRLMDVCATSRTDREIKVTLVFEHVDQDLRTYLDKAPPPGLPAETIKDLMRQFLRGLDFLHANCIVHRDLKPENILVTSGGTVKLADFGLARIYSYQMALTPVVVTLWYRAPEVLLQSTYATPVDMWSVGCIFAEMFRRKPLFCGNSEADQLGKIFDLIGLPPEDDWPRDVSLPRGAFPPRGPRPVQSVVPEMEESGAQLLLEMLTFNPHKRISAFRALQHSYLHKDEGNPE
Sequence of CDK4/cyclin D1 (P24385 whole entry partner, species assumed): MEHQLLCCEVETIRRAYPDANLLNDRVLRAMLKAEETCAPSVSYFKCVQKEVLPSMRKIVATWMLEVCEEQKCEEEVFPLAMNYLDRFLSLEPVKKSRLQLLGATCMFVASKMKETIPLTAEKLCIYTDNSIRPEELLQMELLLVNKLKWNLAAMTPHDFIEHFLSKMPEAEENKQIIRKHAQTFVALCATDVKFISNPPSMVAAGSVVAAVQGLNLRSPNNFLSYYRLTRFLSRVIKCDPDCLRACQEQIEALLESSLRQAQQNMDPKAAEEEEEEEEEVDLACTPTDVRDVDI
How it was run: as §2

[9] = target: CDK6/cyclin D3 (Homo sapiens, UniProt Q00534); assay: Assay of kinase activity (ADP-Glo); format: biochemical; details: kinase inhibitory activity
Sequence of CDK6/cyclin D3 (Q00534 whole entry, species assumed): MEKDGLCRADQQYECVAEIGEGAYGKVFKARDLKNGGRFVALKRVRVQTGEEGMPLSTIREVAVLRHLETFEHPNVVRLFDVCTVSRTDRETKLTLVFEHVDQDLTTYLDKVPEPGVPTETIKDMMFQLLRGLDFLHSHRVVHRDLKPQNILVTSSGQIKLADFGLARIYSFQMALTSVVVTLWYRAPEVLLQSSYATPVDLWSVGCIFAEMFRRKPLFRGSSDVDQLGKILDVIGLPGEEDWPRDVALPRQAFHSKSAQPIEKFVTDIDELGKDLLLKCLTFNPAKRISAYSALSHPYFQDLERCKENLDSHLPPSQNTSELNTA
Sequence of CDK6/cyclin D3 (P30281 whole entry partner, species assumed): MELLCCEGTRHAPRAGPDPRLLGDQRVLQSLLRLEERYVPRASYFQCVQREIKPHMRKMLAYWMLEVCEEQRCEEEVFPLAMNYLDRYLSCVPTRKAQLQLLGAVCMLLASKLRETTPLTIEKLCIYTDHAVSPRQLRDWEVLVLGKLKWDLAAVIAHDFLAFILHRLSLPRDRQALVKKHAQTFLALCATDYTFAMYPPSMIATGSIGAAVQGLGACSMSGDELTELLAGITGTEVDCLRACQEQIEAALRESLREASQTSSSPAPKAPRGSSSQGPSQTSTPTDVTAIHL
How it was run: (§3)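 ADP production quantified by luminescence after 60 min kinase reaction at 25 °C, started with substrate/ATP following 10 min enzyme-compound preincubation. Buffer: 50 mM Hepes, 10 mM MgCl2, 0.01% Brij35, 2 mM DTT. IC50 obtained by nonlinear curve fitting of inhibition data.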

[10] = target: CDK9/cyclin T1 (Homo sapiens, UniProt P50750); assay: Assay of kinase activity (ADP-Glo); format: biochemical; details: kinase inhibitory activity
Sequence of CDK9/cyclin T1 (P50750 whole entry, species assumed): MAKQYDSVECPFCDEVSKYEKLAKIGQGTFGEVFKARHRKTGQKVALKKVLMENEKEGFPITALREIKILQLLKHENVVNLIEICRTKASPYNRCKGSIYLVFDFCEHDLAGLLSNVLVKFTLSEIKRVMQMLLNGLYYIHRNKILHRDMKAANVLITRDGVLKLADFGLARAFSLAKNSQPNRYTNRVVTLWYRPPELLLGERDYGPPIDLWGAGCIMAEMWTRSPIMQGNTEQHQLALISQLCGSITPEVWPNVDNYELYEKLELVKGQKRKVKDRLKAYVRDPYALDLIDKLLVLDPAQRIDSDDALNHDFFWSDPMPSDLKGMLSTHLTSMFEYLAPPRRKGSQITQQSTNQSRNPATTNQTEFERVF
Sequence of CDK9/cyclin T1 (O60563 whole entry partner, species assumed): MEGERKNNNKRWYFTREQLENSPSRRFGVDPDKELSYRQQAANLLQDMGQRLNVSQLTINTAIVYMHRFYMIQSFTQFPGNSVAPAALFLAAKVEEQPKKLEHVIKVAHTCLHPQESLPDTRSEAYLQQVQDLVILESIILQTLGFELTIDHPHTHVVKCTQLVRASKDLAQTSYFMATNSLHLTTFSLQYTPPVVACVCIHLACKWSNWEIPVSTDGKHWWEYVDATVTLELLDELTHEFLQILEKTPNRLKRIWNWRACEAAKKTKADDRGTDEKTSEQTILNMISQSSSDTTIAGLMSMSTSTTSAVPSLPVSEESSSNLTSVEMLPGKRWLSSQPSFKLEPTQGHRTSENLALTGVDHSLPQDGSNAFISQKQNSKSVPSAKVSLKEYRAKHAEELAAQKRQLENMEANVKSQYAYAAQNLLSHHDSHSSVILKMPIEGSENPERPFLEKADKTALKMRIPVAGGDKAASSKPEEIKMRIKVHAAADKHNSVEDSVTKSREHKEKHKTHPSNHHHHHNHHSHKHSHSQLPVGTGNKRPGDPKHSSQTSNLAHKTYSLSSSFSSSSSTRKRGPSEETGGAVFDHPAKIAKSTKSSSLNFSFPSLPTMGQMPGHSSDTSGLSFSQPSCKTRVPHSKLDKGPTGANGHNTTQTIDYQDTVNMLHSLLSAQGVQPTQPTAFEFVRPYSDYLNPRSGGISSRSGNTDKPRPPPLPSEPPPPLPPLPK
How it was run: as §3

SMILES	IC50 [1] [nM]	IC50 [2] [nM]	IC50 [3] [nM]	IC50 [4] [nM]	IC50 [5] [nM]	IC50 [6] [nM]	IC50 [7] [nM]	IC50 [8] [nM]	IC50 [9] [nM]	IC50 [10] [nM]
CC(C)n1nnc2ccc3cnc(Nc4ccc(C(=O)N5CC[C@H](N)C5)cc4)nc3c21 [Example I-4, (S)-(3-Aminopyrrolidin-1-yl)(4-((1-isopropyl-1H-[1,2,3]triazolo[4,5-H]quinazolin-8-yl)amino)phenyl)methanone]	24	8	18	3	25	12	0.08	0.5	8	5
CC(C)n1nnc2ccc3cnc(Nc4ccc(C(=O)N5CCC(O)C5)cc4)nc3c21 (stereo not shown) [Example I-3, (3-Hydroxypyrrolidin-1-yl)(4-((1-isopropyl-1H-[1,2,3]triazolo[4,5-H]quinazolin-8-yl)amino)phenyl)methanone]	302	196	–	–	94	203	0.4	1	4	6
CC1(O)CCCC1n1c(=O)c(C(F)F)cc2cnc(NC3CCN(S(C)(=O)=O)CC3)nc21 (stereo not shown) [PF06873600 (Ebvaciclib), reference compound]	481	77	24	100	69	118	–	–	–	452
CC(C)n1nnc2ccc3cnc(Nc4ccc(C(=O)N5CC[C@H](F)C5)cc4)nc3c21 [Example I-1, (S)-(3-Fluoropyrrolidin-1-yl)(4-((1-isopropyl-1H-[1,2,3]triazolo[4,5-H]quinazolin-8-yl)amino)phenyl)methanone]	223	45	–	17	–	119	0.2	2	13	9
CC(C)n1nnc2ccc3cnc(Nc4ccc(C(=O)N5CC6CCC(C5)N6)cc4)nc3c21 [Example I-25, (3,8-Diazabicyclo[3.2.1]octan-3-yl)(4-((1-isopropyl-1H-[1,2,3]triazolo[4,5-H]quinazolin-8-yl)amino)phenyl)metha none]	85	13	–	4	–	33	0.2	1	29	16
CC(C)n1nnc2ccc3cnc(Nc4ccc(C(=O)N5CCC(N)CC5)c(F)c4)nc3c21 [Example I-16, (4-Aminopiperidin-1-yl)(2-fluoro-4-((1-isopropyl-1H-[1,2,3]triazolo[4,5-H]quinazolin-8-yl)amino)phenyl)metha none]	374	110	–	9	–	90	4	12	230	78
CC(C)N[C@H]1CCN(C(=O)c2ccc(Nc3ncc4ccc5nnn(C(C)C)c5c4n3)cc2)C1 [Example I-8, (S)-(4-((1-Isopropyl-1H-[1,2,3]triazolo[4,5-H]quinazolin-8-yl)amino)phenyl)(3-(isopropylamino)pyrrolidin-1-yl)methanone]	16	4	–	2	–	7	0.1	0.8	19	3
CC(C)n1nnc2ccc3cnc(Nc4ccc(C(=O)N5CC[C@@H](N)C5)cc4)nc3c21 [Example I-5, (R)-(3-Aminopyrrolidin-1-yl)(4-((1-isopropyl-1H-[1,2,3]triazolo[4,5-H]quinazolin-8-yl)amino)phenyl)metha none]	53	11	–	3	–	12	0.07	0.8	10	7

Other lines, results leading:

IC50 [1] [nM]	IC50 [2] [nM]	IC50 [3] [nM]	IC50 [4] [nM]	IC50 [5] [nM]	IC50 [6] [nM]	IC50 [7] [nM]	IC50 [8] [nM]	IC50 [9] [nM]	IC50 [10] [nM]	SMILES
403	28	167	15	80	140	0.8	4	16	11	CC(C)n1nnc2ccc3cnc(Nc4ccc(C(=O)N5CCC(O)CC5)cc4)nc3c21 [Example I-36, (4-Hydroxypiperidin-1-yl)(4-((1-isopropyl-1H-[1,2,3]triazolo[4,5-H]quinazolin-8-yl)amino)phenyl)metha none]
379	85	42	10	21	49	1	2	12	8	CC(C)n1nnc2ccc3cnc(Nc4ccc(C(=O)N5CCNCC5)c(F)c4)nc3c21 [Example I-19, (2-Fluoro-4-((1-isopropyl-1H-[1,2,3]triazolo[4,5-H]quinazolin-8-yl)amino)phenyl)(piperazin-1-yl)methanone]
832	58	239	20	136	372	0.8	3	11	10	CC(C)n1nnc2ccc3cnc(Nc4ccc(C(=O)N5CCC(F)(F)CC5)cc4)nc3c21 [Example I-37, (4,4-Difluoropiperidin-1-yl)(4-((1-isopropyl-1H-[1,2,3]triazolo[4,5-H]quinazolin-8-yl)amino)phenyl)metha none]
167	44	–	9	–	80	3	15	230	315	CC(C)n1nnc2ccc3cnc(Nc4ccc(C(=O)N5CCS(=O)(=O)CC5)cc4)nc3c21 [Example I-32, (1,1-Dioxothiomorpholino)(4-((1-isopropyl-1H-[1,2,3]triazolo[4,5-H]quinazolin-8-yl)amino)phenyl)metha none]
121	62	–	8	–	181	1	2	34	112	C[C@@]1(O)CCC[C@H]1n1nnc2ccc3cnc(Nc4ccc(C(=O)N5CCS(=O)(=O)CC5)cc4)nc3c21 [Example I-68, (1,1-Dioxothiomorpholino)(4-((1-((1R,2R)-2-hydroxy-2-methylcyclopentyl)-1H-[1,2,3]triazolo[4,5-H]quinazolin-8-yl)amino)phenyl)methanone]
365	81	–	11	–	275	0.8	1	4	15	C[C@@H](n1nnc2ccc3cnc(Nc4ccc(C(=O)N5CCNCC5)cc4)nc3c21)C(C)(C)O [Example I-56, (R)-(4-((1-(3-Hydroxy-3-methylbutan-2-yl)-1H-[1,2,3]triazolo[4,5-H]quinazolin-8-yl)amino)phenyl)(piperazin-1-yl)methanone]
8	8	–	4	–	11	0.9	1	2	16	C[C@@H](n1nnc2ccc3cnc(Nc4ccc(C(=O)N5CCCN(C)CC5)cc4)nc3c21)C(C)(C)O [Example I-61, (R)-(4-((1-(3-Hydroxy-3-methylbutan-2-yl)-1H-[1,2,3]triazolo[4,5-H]quinazolin-8-yl)amino)phenyl)(4-methyl-1,4-diazepan-1-yl)methanone]

— patent EP4711369A1, “1H-[1,2,3]TRIAZOLO[4,5-H]QUINAZOLINE COMPOUNDS AS PROTEIN KINASE INHIBITORS” (Chengdu Cynogen Bio-Pharmaceutical Technology Co., Ltd., priority 2023, dated 2024)
